# Reference: ChEMBL document CHEMBL1201862, “PubChem BioAssay data set” (2004)
#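 Exposure lasted 48 hours, with cells grown in 96-well plates and compounds tested at five concentrations. The concentration for 50% growth inhibition is given as GI50.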 Activity calls are given as the source filed them. Cut-off read from the data, not from the text of the source: active = GI50 up to about 1.1 µM and inactive = higher.
# Experiments:
# Assay in all cases: inhibition of tumour cell growth, NCI panel, 48 h
# [1] = system: 786-0
# [2] = system: A498
# [3] = system: ACHN
# [4] = system: CAKI-1
# [5] = system: CCRF-CEM
# [6] = system: COLO 205
# [7] = system: DLD-1
# [8] = system: DMS-114
# [9] = system: DMS-273
# [10] = system: HCC 2998
# [11] = system: HCT-116
# [12] = system: HL-60
# [13] = system: HOP-62
# [14] = system: HOP-92
# [15] = system: IGROV-1
# [16] = system: K562
# [17] = system: LXFL 529
# [18] = system: M14
# [19] = system: M19-MEL
# [20] = system: MOLT-4
# [21] = system: Malme-3M
# [22] = system: NCI-H226
# [23] = system: NCI-H23
# [24] = system: NCI-H522
# [25] = system: OVCAR-4
# [26] = system: RPMI-8226
# [27] = system: RXF 631
# [28] = system: SF-268
# [29] = system: SF-539
# [30] = system: SK-MEL-28
# [31] = system: SK-MEL-2
# [32] = system: SK-OV-3
# [33] = system: SN12C
# [34] = system: SNB-75
# [35] = system: SR
# [36] = system: UACC-62
# [37] = system: UO-31
# [38] = system: XF498
# [39] = system: A549
# [40] = system: EKVX
# [41] = system: HCT-15
# [42] = system: HOP-18
# [43] = system: HT-29
# [44] = system: KM-20L2
# [45] = system: KM12
# [46] = system: LOX IMVI
# [47] = system: NCI-H460
# [48] = system: OVCAR-3
# [49] = system: OVCAR-8
# [50] = system: RXF 393
# [51] = system: SF-295
# [52] = system: SNB-19
# [53] = system: SNB-78
# [54] = system: SW-620
# [55] = system: TK-10
# [56] = system: U-251
# [57] = system: UACC-257
compound,measurement,setting,value
CNC1CC(n2cc(C)c(=O)[nH]c2=O)OC1CO (stereo not drawn),GI50,[1],> 100 µM (inactive)
same,GI50,[2],> 100 µM (inactive)
same,GI50,[3],> 100 µM (inactive)
same,GI50,[4],> 100 µM (inactive)
same,GI50,[5],> 100 µM (inactive)
same,GI50,[6],> 100 µM (inactive)
same,GI50,[7],> 100 µM (inactive)
same,GI50,[8],> 100 µM (inactive)
same,GI50,[9],> 100 µM (inactive)
same,GI50,[10],> 100 µM (inactive)
same,GI50,[11],> 100 µM (inactive)
same,GI50,[12],> 100 µM (inactive)
same,GI50,[13],> 100 µM (inactive)
same,GI50,[14],> 100 µM (inactive)
same,GI50,[15],> 100 µM (inactive)
same,GI50,[16],> 100 µM (inactive)
same,GI50,[17],> 100 µM (inactive)
same,GI50,[18],> 100 µM (inactive)
same,GI50,[19],> 100 µM (inactive)
same,GI50,[20],> 100 µM (inactive)
same,GI50,[21],> 100 µM (inactive)
same,GI50,[22],> 100 µM (inactive)
same,GI50,[23],> 100 µM (inactive)
same,GI50,[24],> 100 µM (inactive)
same,GI50,[25],> 100 µM (inactive)
same,GI50,[26],> 100 µM (inactive)
same,GI50,[27],> 100 µM (inactive)
same,GI50,[28],> 100 µM (inactive)
same,GI50,[29],> 100 µM (inactive)
same,GI50,[30],> 100 µM (inactive)
same,GI50,[31],> 100 µM (inactive)
same,GI50,[32],> 100 µM (inactive)
same,GI50,[33],> 100 µM (inactive)
same,GI50,[34],> 100 µM (inactive)
same,GI50,[35],> 100 µM (inactive)
same,GI50,[36],> 100 µM (inactive)
same,GI50,[37],> 100 µM (inactive)
same,GI50,[38],> 100 µM (inactive)
NC(CCCC(N)P(=O)(O)c1ccccc1)P(=O)(O)c1ccccc1 (stereo not drawn),GI50,[1],> 261 µM (inactive)
same,GI50,[2],> 261 µM (inactive)
same,GI50,[39],> 261 µM (inactive)
same,GI50,[3],> 261 µM (inactive)
same,GI50,[5],> 261 µM (inactive)
same,GI50,[6],> 261 µM (inactive)
same,GI50,[7],> 261 µM (inactive)
same,GI50,[8],> 261 µM (inactive)
same,GI50,[9],> 261 µM (inactive)
same,GI50,[40],> 261 µM (inactive)
same,GI50,[10],> 261 µM (inactive)
same,GI50,[11],> 261 µM (inactive)
same,GI50,[41],> 261 µM
same,GI50,[12],> 261 µM (inactive)
same,GI50,[42],> 261 µM (inactive)
same,GI50,[13],> 261 µM (inactive)
same,GI50,[14],> 261 µM (inactive)
same,GI50,[43],> 261 µM (inactive)
same,GI50,[15],> 261 µM (inactive)
same,GI50,[16],> 261 µM (inactive)
same,GI50,[44],> 261 µM (inactive)
same,GI50,[45],> 261 µM (inactive)
same,GI50,[46],> 261 µM (inactive)
same,GI50,[17],> 261 µM (inactive)
same,GI50,[18],> 261 µM (inactive)
same,GI50,[19],> 261 µM (inactive)
same,GI50,[20],> 261 µM (inactive)
same,GI50,[21],> 261 µM (inactive)
same,GI50,[22],> 261 µM (inactive)
same,GI50,[23],> 261 µM (inactive)
same,GI50,[47],> 261 µM (inactive)
same,GI50,[24],> 261 µM (inactive)
same,GI50,[48],> 261 µM (inactive)
same,GI50,[25],> 261 µM (inactive)
same,GI50,[49],> 261 µM (inactive)
same,GI50,[26],> 261 µM (inactive)
same,GI50,[50],> 261 µM (inactive)
same,GI50,[28],> 261 µM (inactive)
same,GI50,[51],> 261 µM (inactive)
same,GI50,[29],> 261 µM (inactive)
same,GI50,[30],> 261 µM (inactive)
same,GI50,[31],> 261 µM (inactive)
same,GI50,[32],> 261 µM (inactive)
same,GI50,[33],> 261 µM (inactive)
same,GI50,[52],> 261 µM (inactive)
same,GI50,[34],> 261 µM (inactive)
same,GI50,[53],> 261 µM (inactive)
same,GI50,[35],> 261 µM (inactive)
same,GI50,[54],> 261 µM (inactive)
same,GI50,[55],> 261 µM (inactive)
same,GI50,[56],> 261 µM (inactive)
same,GI50,[57],> 261 µM (inactive)
same,GI50,[36],> 261 µM (inactive)
same,GI50,[37],> 261 µM (inactive)
same,GI50,[38],> 261 µM (inactive)
